According to patent US20250171423A1, “PHARMACEUTICAL COMPOUNDS FOR THE TREATMENT OF COMPLEMENT MEDIATED DISORDERS” (Achillion Pharmaceuticals, Inc., priority 2020, published 2025):
Where a name gives a salt, the structure may show the parent alone.

The molecules below were run against T1, Human complement C1s enzyme (Homo sapiens, UniProt P09871) (assay: Human C1s Enzyme Assay). Settings: human C1s 1.16 nM, 5 min preincubation, substrate Z-L-Lys-SBzl 100 μM, A405; read-out: C1s Protease Activity.
T1 construct: purified from human serum, Complement Technology, Inc; purchased Complement Technology, Inc; host or cells: human serum
T1 sequence (P09871 438-688 limits assumed): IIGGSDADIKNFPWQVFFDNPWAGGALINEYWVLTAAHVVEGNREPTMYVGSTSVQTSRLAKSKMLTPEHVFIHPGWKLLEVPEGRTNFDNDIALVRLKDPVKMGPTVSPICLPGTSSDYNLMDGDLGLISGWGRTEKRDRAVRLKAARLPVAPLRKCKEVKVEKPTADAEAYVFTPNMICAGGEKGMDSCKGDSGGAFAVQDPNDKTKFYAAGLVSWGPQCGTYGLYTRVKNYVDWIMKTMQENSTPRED
T1 sequence (P09871 16-437 partner limits assumed): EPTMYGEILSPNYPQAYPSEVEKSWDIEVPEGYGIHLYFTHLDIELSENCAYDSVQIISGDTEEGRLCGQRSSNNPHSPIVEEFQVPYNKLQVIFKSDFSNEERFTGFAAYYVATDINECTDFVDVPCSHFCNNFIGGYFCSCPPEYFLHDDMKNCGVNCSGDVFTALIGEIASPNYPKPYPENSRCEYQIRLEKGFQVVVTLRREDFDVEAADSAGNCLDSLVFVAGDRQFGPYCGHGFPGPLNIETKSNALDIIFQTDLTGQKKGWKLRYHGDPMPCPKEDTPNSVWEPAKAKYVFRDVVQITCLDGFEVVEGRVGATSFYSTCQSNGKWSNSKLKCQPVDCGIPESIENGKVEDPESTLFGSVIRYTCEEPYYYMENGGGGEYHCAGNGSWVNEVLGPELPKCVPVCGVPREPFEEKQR
Type: biochemical
Protocol: The assay of Example 3 was used to determine the IC50's of the compounds. Other standard complement assays are also available.
Example 3. Human C1s Enzyme Assay
Human complement C1s enzyme (purified from human serum, Complement Technology, Inc.) at 1.16 nM final concentration was incubated with test compound at various concentrations for 5 min at room temperature in 50 mM Tris, 1 M NaCl, pH 7.5. A synthetic substrate Z-L-Lys-SBzl and DTNB (Ellman's reagent) were added to final concentrations of 100 μM each. Absorbance at 405 nm (A405) was recorded at 30 second intervals for 30 min using a microplate spectrophotometer. IC50 values were calculated by nonlinear regression of complement C1s reaction rates as a function of test compound concentration.

SMILES	IC50 [nM]
N=C(N)c1csc(CNC(=O)[C@@H]2C[C@@H](Cc3ccc(C(F)(F)F)cc3)CN2C(=O)CNC(=O)c2ccc(Oc3ccccc3)cc2)c1 [Compound 17, (2S,4R)-N-((4-carbamimidoylthiophen-2-yl)methyl)-1-((4-phenoxybenzoyl)glycyl)-4-(4-(trifluoromethyl)benzyl)pyrrolidine-2-carboxamide]	< 100
N=C(N)c1csc(CNC(=O)[C@@H]2C[C@@]3(CN2C(=O)CNC(=O)c2ccc(Oc4ccccc4)cc2)CC3(F)F)c1 [Compound 21, (3S,6S)-N-((4-carbamimidoylthiophen-2-yl)methyl)-1,1-difluoro-5-((4-phenoxy-benzoyl)glycyl)-5-azaspiro[2.4]heptane-6-carboxamide]	< 100
C[C@H](O)[C@H](O)[C@@H](O)[C@@H](O)CNCC(=O)N1[C@H]2C[C@@]2(C)C[C@H]1C(=O)NCc1cc(C(=N)N)cs1 [Compound 24, (1S,3S,5S)-N-((4-carbamimidoylthiophen-2-yl)methyl)-5-methyl-2-(((2S,3S,4S,5S)-2,3,4,5-tetrahydroxyhexyl)glycyl)-2-azabicyclo[3.1.0]hexane-3-carboxamide hydrochloride]	> 1000
CC(=O)O/N=C(\N)c1csc(CNC(=O)[C@@H]2C[C@]3(C)C[C@@H]3N2C(=O)CN(C[C@H](O)[C@H](O)[C@@H](O)[C@H](C)O)C(=O)OC(C)(C)C)c1 [Compound 25, tert-butyl (2-((1S,3S,5S)-3-(((4-(N-acetoxycarbamimidoyl)thiophen-2-yl)methyl)-carbamoyl)-5-methyl-2-azabicyclo[3.1.0]hexan-2-yl)-2-oxoethyl)((2S,3S,4S,5S)-2,3,4,5-tetrahydroxyhexyl)carbamate]	> 1000
N=C(N)c1csc(CNC(=O)[C@@H]2CC(=C(F)F)CN2C(=O)CNC(=O)CCCOc2ccccc2)c1 [Compound 26, (S)-N-((4-carbamimidoylthiophen-2-yl)methyl)-4-(difluoromethylene)-1-((4-phenoxy-butanoyl)glycyl)pyrrolidine-2-carboxamide]	< 100
CO[C@@H]1C[C@@H](C(=O)NCc2cc(C(=N)N)cs2)N(C(=O)CNC(=O)CCCOc2ccccc2)C1 [Compound 27, (2S,4R)-N-((4-carbamimidoylthiophen-2-yl)methyl)-4-methoxy-1-((4-phenoxy-butanoyl)glycyl)pyrrolidine-2-carboxamide]	< 100
N=C(N)c1csc(CNC(=O)[C@@H]2CC3(CN2C(=O)CNC(=O)CCCOc2ccccc2)OCCO3)c1 [Compound 28, (S)-N-((4-carbamimidoylthiophen-2-yl)methyl)-7-((4-phenoxybutanoyl)glycyl)-1,4-dioxa-7-azaspiro[4.4]nonane-8-carboxamide]	< 100
N=C(N)c1csc(CNC(=O)[C@@H]2C[C@@H](OC(F)F)CN2C(=O)CNC(=O)CCCOc2ccccc2)c1 [Compound 29, (2S,4R)-N-((4-carbamimidoylthiophen-2-yl)methyl)-4-(difluoromethoxy)-1-((4-phenoxybutanoyl)glycyl)pyrrolidine-2-carboxamide]	< 100
N=C(N)c1csc(CNC(=O)[C@@H]2C[C@](F)(CF)CN2C(=O)CNC(=O)CCCOc2ccccc2)c1 [Compound 33, (2S,4R)-N-((4-carbamimidoylthiophen-2-yl)methyl)-4-fluoro-4-(fluoromethyl)-1-((4-phenoxybutanoyl)glycyl)pyrrolidine-2-carboxamide]	< 100
N=C(N)c1csc(CNC(=O)[C@@H]2C[C@H](OC(F)F)CN2C(=O)CNC(=O)c2ccc(Oc3ccccc3)cc2)c1 [Compound 36, (2S,4S)-N-((4-carbamimidoylthiophen-2-yl)methyl)-4-(difluoromethoxy)-1-((4-phenoxybenzoyl)glycyl)pyrrolidine-2-carboxamide]	< 100
CC(=O)ONC(=N)c1csc(CNC(=O)[C@@H]2C[C@]3(C)C[C@@H]3N2C(=O)CNC(=O)c2ccc(Oc3ccccc3)cc2)c1 [Compound 39, (1S,3S,5S)-N-((4-(N-acetoxycarbamimidoyl)thiophen-2-yl)methyl)-5-methyl-2-((4-phenoxybenzoyl)glycyl)-2-azabicyclo[3.1.0]hexane-3-carboxamide]	100 to 1000
N=C(N)c1csc(NC(=O)C[C@@H]2CCCN2C(=O)CNC(=O)c2ccc(Oc3ccccc3)cc2)c1 [Compound 40, N-{2-[(2S)-2-{[(4-carbamimidoylthiophen-2-yl)carbamoyl]methyl}pyrrolidin-1-yl]-2-oxoethyl}-4-phenoxybenzamide]	> 1000

Other lines, results leading:

IC50 [nM]	SMILES
< 100	COC[C@@]12C[C@@H]1N(C(=O)CNC(=O)c1ccc(Oc3ccccc3)cc1)[C@H](C(=O)NCc1cc(C(=N)N)cs1)C2 [Compound 20, (1S,3S,5R)-N-((4-carbamimidoylthiophen-2-yl)methyl)-5-(methoxymethyl)-2-((4-phenoxybenzoyl)glycyl)-2-azabicyclo[3.1.0]hexane-3-carboxamide]
< 100	N=C(N)c1csc(CNC(=O)[C@@H]2C[C@]3(CN2C(=O)CNC(=O)c2ccc(Oc4ccccc4)cc2)CC3(F)F)c1 [Compound 22, (3R,6S)-N-((4-carbamimidoylthiophen-2-yl)methyl)-1,1-difluoro-5-((4-phenoxy-benzoyl)glycyl)-5-azaspiro[2.4]heptane-6-carboxamide]
> 1000	C[C@@]12C[C@@H]1N(C(=O)CNC(=O)c1ccc(Oc3ccccc3)cc1)[C@H](C(=O)NCc1cc(S(C)(=N)=O)cs1)C2 (stereo partly drawn) [Compound 23, (1S,3S,5S)-5-methyl-N-((4-(S-methylsulfonimidoyl)thiophen-2-yl)methyl)-2-((4-phenoxybenzoyl)glycyl)-2-azabicyclo[3.1.0]hexane-3-carboxamide]
> 1000	CO/C(=N/C#N)c1csc(CNC(=O)[C@@H]2C[C@]3(C)C[C@@H]3N2C(=O)CNC(=O)c2ccc(Oc3ccccc3)cc2)c1 [Compound 31, methyl (E)-N-cyano-5-(((1S,3S,5S)-5-methyl-2-((4-phenoxybenzoyl)glycyl)-2-azabicyclo[3.1.0]hexane-3-carboxamido)methyl)thiophene-3-carbimidate]
100 to 1000	COC(=N)c1csc(CNC(=O)[C@@H]2C[C@]3(C)C[C@@H]3N2C(=O)CNC(=O)c2ccc(Oc3ccccc3)cc2)c1 [Compound 32, methyl 5-(((1S,3S,5S)-5-methyl-2-((4-phenoxybenzoyl)glycyl)-2-azabicyclo[3.1.0]-hexane-3-carboxamido)methyl)thiophene-3-carbimidate]
> 1000	C[C@@]12C[C@@H]1N(C(=O)CNC(=O)c1ccc(Oc3ccccc3)cc1)[C@H](C(=O)NCc1cc(-c3noc(=O)[nH]3)cs1)C2 [Compound 34, (1S,3S,5S)-5-methyl-N-((4-(5-oxo-4,5-dihydro-1,2,4-oxadiazol-3-yl)thiophen-2-yl)methyl)-2-((4-phenoxybenzoyl)glycyl)-2-azabicyclo[3.1.0]hexane-3-carboxamide]
> 1000	C[C@@]12C[C@@H]1N(C(=O)CNC(=O)c1ccc(Oc3ccccc3)cc1)[C@H](C(=O)NCc1cc(C3=NCCN3)cs1)C2 [Compound 37, (1S,3S,5S)-N-((4-(4,5-dihydro-1H-imidazol-2-yl)thiophen-2-yl)methyl)-5-methyl-2-((4-phenoxybenzoyl)glycyl)-2-azabicyclo[3.1.0]hexane-3-carboxamide]
< 100	C[C@@]12C[C@@H]1N(C(=O)CNC(=O)c1ccc(Oc3ccccc3)cc1)[C@H](C(=O)NCc1cc(-c3ncc[nH]3)cs1)C2 [Compound 38, (1S,3S,5S)-N-((4-(1H-imidazol-2-yl)thiophen-2-yl)methyl)-5-methyl-2-((4-phenoxybenzoyl)glycyl)-2-azabicyclo[3.1.0]hexane-3-carboxamide]
< 100	C[C@@]12C[C@@H]1N(C(=O)CNC(=O)c1ccc(Oc3ccccc3)cc1)[C@H](C(=O)NC1(c3cc(C(=N)N)cs3)CC1)C2 [Compound 41, (1S,3S,5S)-N-(1-(4-carbamimidoylthiophen-2-yl)cyclopropyl)-5-methyl-2-((4-phenoxybenzoyl)glycyl)-2-azabicyclo[3.1.0]hexane-3-carboxamide]
> 1000	COc1cccc(CNC(=O)[C@@H]2C[C@]3(C)C[C@@H]3N2C(=O)CNC(=O)c2ccc(Oc3ccccc3)cc2)c1 [Compound 42, (1S,3S,5S)-N-(3-methoxybenzyl)-5-methyl-2-((4-phenoxybenzoyl)-glycyl)-2-azabicyclo[3.1.0]hexane-3-carboxamide]

Same assay, conditions: read-out: C1s Protease Activity; human C1s 1.16 nM, 5 min preincubation, substrate Z-L-Lys-SBzl 100 μM, A405

SMILES	IC50 [nM]
N=C(N)c1csc(CNC(=O)C23CCC(CC2)N3C(=O)CNC(=O)CCCOc2ccccc2)c1 [Compound 30, N-((4-carbamimidoylthiophen-2-yl)methyl)-7-((4-phenoxybutanoyl)glycyl)-7-azabicyclo[2.2.1]heptane-1-carboxamide]	< 100
